Test results reported in the Biogen ADME set (Fang et al. 2023).
Values after ≈ are worked out from the molar mass of the structure shown.

Conditions: for aqueous solubility: pH 6.8

| Compound | intrinsic clearance, human liver microsomes | intrinsic clearance, rat liver microsomes | MDR1-MDCK efflux ratio | aqueous solubility | fraction unbound, human plasma | fraction unbound, rat plasma |
| --- | --- | --- | --- | --- | --- | --- |
| COc1ccc(CN2CCC(c3cc[nH]n3)CC2)cn1 | ≤ 4.74 mL/min/kg | 103 mL/min/kg |  |  |  |  |
| O=C(NC1CCCCCC1)c1ccc(-c2cnco2)cc1 | 14.9 mL/min/kg | 90.4 mL/min/kg | 0.516 | 9.2 µg/mL (≈ 32.4 µM) |  |  |
| N#CCCN(C(=O)c1cccs1)C12CC3CC(CC(C3)C1)C2 | 262 mL/min/kg | 2310 mL/min/kg | 0.531 | 7.2 µg/mL (≈ 22.9 µM) |  |  |
| CCOc1ccc2[nH]c(C(=O)N3CC[C@@](O)(CC(C)C)[C@@H](Oc4ccc(F)cc4)C3)c(C)c2c1 | 109 mL/min/kg | 943 mL/min/kg | 6.74 |  |  |  |
| COc1nc(C)nc(N(C)Cc2nccs2)c1C | 131 mL/min/kg | 508 mL/min/kg | 0.467 | 29.8 µg/mL (≈ 113 µM) |  |  |
| CS(=O)(=O)CCc1nc(C2(c3ccccc3)CC2)nn1-c1ccccc1 | 5.64 mL/min/kg | 131 mL/min/kg | 5.9 | 30.6 µg/mL (≈ 83.3 µM) |  |  |
| CSc1nnc(CCCNc2cc(C)ccn2)n1C1CCCC1 | 138 mL/min/kg | 3220 mL/min/kg | 18.2 |  |  |  |
| CCN(C/C=C/c1ccc(F)cc1)Cc1nc(COC)no1 | 25.9 mL/min/kg | 862 mL/min/kg | 0.527 | 32 µg/mL (≈ 105 µM) |  |  |
| CC(C)(CNc1cnn(CCO)c1)c1ccccc1 | 8.4 mL/min/kg | 324 mL/min/kg |  |  |  |  |
| Oc1ccc2nc(/C=C/c3csnn3)ccc2c1Cl | 99.4 mL/min/kg | 240 mL/min/kg | 0.069 |  |  |  |
| O=C(Nc1ccccc1)c1scnc1-c1ccccc1 | 110 mL/min/kg | 1040 mL/min/kg |  |  |  |  |
| CC(=O)N1c2ccc(S(=O)(=O)Nc3cccc(-c4cnco4)c3)cc2CC1C (stereo not drawn) | 67.6 mL/min/kg | 274 mL/min/kg | 11.5 |  |  |  |
| COc1ccc(Cl)cc1N(CC(=O)Nc1ccccc1C(=O)NCc1ccccc1)S(C)(=O)=O | 594 mL/min/kg | 1370 mL/min/kg |  |  |  |  |
| Cc1cccnc1NC(=O)CCn1cnc2ccccc21 | ≤ 4.74 mL/min/kg | ≤ 10.7 mL/min/kg | 15.9 | 48.1 µg/mL (≈ 172 µM) |  |  |
| N#Cc1ccccc1NC(=O)CCc1ccccc1 | 16 mL/min/kg | 456 mL/min/kg | 0.552 |  |  |  |
| CNc1cc(Nc2cccn(-c3ccccn3)c2=O)nn2c(C(=O)N[C@@H]3C[C@@H]3F)cnc12 | ≤ 4.74 mL/min/kg | 24.7 mL/min/kg | 31.1 | 1.23 µg/mL (≈ 2.83 µM) | 0.098 | 0.033 |
| CCS(=O)(=O)N1CCN(c2ccc(Nc3ncc(C(N)=O)c(NC4CC4)n3)cc2)CC1 | 9.73 mL/min/kg | 36.3 mL/min/kg | 39.4 |  |  |  |
| CCC(=O)Nc1ccc(F)c(NC(=O)N2CC=C(C)CC2)c1 | 9.2 mL/min/kg | 68.6 mL/min/kg | 1.35 |  |  |  |
| CCc1c(O)cc(O)c(C(=O)c2ccc(OCCN3CCOCC3)c(OC)c2)c1CC(=O)N(CCOC)CCOC | 28.1 mL/min/kg | 209 mL/min/kg | 7.53 |  |  |  |

| Compound | intrinsic clearance, human liver microsomes | intrinsic clearance, rat liver microsomes | MDR1-MDCK efflux ratio | aqueous solubility | fraction unbound, human plasma | fraction unbound, rat plasma |
| --- | --- | --- | --- | --- | --- | --- |
| COc1ccc(-c2nnc(-c3ccccc3)o2)cc1OC | 49.4 mL/min/kg | 50.8 mL/min/kg | 0.227 | 4.34 µg/mL (≈ 15.4 µM) |  |  |
| C=CC(=O)Nc1cccc(Sc2nc(Nc3ccc(N4CCN(C)CC4)cc3)ncc2Cl)c1 |  |  |  | 0.4 µg/mL (≈ 0.832 µM) |  |  |
| Cn1cc(NC(=O)[C@@H]2CCCCN2C(=O)OC(C)(C)C)cn1 | ≤ 4.74 mL/min/kg | 28.2 mL/min/kg | 4.1 | 67.2 µg/mL (≈ 218 µM) |  |  |
| Nc1ccnn1Cc1ccc(Cl)c(F)c1 | ≤ 4.74 mL/min/kg | 36.6 mL/min/kg |  | 41.1 µg/mL (≈ 182 µM) |  |  |
| O=C1NCCN(C(=O)c2ccncc2)C1c1ccccc1Cl (stereo not drawn) | ≤ 4.74 mL/min/kg | 93.1 mL/min/kg | 4.46 | 44.2 µg/mL (≈ 140 µM) | 0.753 | 0.738 |
| CCc1nnc2n1CCN(C(=O)c1ccccc1Oc1cccnc1)C2 | 4.83 mL/min/kg | 74.7 mL/min/kg | 61.5 | 43.4 µg/mL (≈ 124 µM) |  |  |
| O=C(Nc1cc(Cl)ccc1Cl)c1cccc(N2CCCC2=O)c1 | 156 mL/min/kg | 969 mL/min/kg |  | 34.8 µg/mL (≈ 99.7 µM) |  |  |
| Cc1noc2ncc(C(=O)Nc3nc(C4CC4)cs3)cc12 | 89.9 mL/min/kg | 377 mL/min/kg | 0.511 | 11.5 µg/mL (≈ 38.3 µM) |  |  |
| Cc1ccc(C(=O)O)cc1NS(=O)(=O)c1csc(C(=O)Nc2ccccc2)c1 | ≤ 4.74 mL/min/kg | ≤ 10.7 mL/min/kg | 0.879 | 61.5 µg/mL (≈ 148 µM) |  |  |
| Cc1cc(-n2ccnc2)ccc1C(=O)O | ≤ 4.74 mL/min/kg | ≤ 10.7 mL/min/kg | 0.417 |  |  |  |
| C=CC(=O)Nc1cc(-n2c(=O)ccc3cnc4ccc(-c5ccc(NS(C)(=O)=O)cc5)cc4c32)ccc1C |  |  | 50.5 | 0.3 µg/mL (≈ 0.572 µM) |  |  |
| COc1cccc(OCCCn2cncc2-c2cc3c(cc2OC)OCCCO3)c1 | 16.7 mL/min/kg | 106 mL/min/kg | 5.28 | 95.5 µg/mL (≈ 233 µM) |  |  |
| CC(C)c1noc2nc(C3CC3)cc(C(=O)N3CC[C@H](N)C3)c12 | ≤ 4.74 mL/min/kg | ≤ 10.7 mL/min/kg | 128 | 34.1 µg/mL (≈ 108 µM) |  |  |
| Cc1c(Cl)ccc2cc3n(c12)[C@@H](C)CNC3=O | 10.8 mL/min/kg | 70.4 mL/min/kg | 0.513 | 33.3 µg/mL (≈ 134 µM) | 0.0213 | 0.0497 |
| COc1ccc(-c2csc(CC(N)=O)n2)cc1 |  |  | 0.751 | 31.3 µg/mL (≈ 126 µM) |  |  |
| N#Cc1c(O)nc(SCc2cccc(F)c2F)nc1C1CC1 |  |  | 0.817 | 2.1 µg/mL (≈ 6.58 µM) |  |  |
| O=C(C1CCC1)N1CCC(c2ncc(-c3ccc(F)c(F)c3)[nH]2)CC1 | 43.2 mL/min/kg | 2740 mL/min/kg | 3.5 | 57.1 µg/mL (≈ 165 µM) |  |  |
| c1ccc(N2CCOCC2)c(CNc2cc(N3CCCC3)ncn2)c1 | 190 mL/min/kg | 1520 mL/min/kg | 2.09 |  |  |  |
| CC(/C=C/C(=O)NO)=C\[C@@H](C)C(=O)c1ccc(N(C)C)cc1 | 23.3 mL/min/kg | 152 mL/min/kg | 5.29 | 22.1 µg/mL (≈ 73.1 µM) |  |  |

| Compound | intrinsic clearance, human liver microsomes | intrinsic clearance, rat liver microsomes | MDR1-MDCK efflux ratio | aqueous solubility | fraction unbound, human plasma | fraction unbound, rat plasma |
| --- | --- | --- | --- | --- | --- | --- |
| COc1ccc(NC(=O)CN2CCCC2)cc1 | ≤ 4.74 mL/min/kg | 1850 mL/min/kg |  |  |  |  |
| Cc1cccc(OC2CN(C(=O)Cn3c(C)nn(-c4ccccc4)c3=O)C2)c1 | 13.5 mL/min/kg | 103 mL/min/kg | 0.993 | 5.11 µg/mL (≈ 13.5 µM) |  |  |
| c1ccc2nc(N3CCCC4(CCNCC4)CC3)cnc2c1 | ≤ 4.74 mL/min/kg | 495 mL/min/kg | 33.3 |  |  |  |
| Cc1c(C)n(Cc2ccccc2)c2ncnc(N)c12 | 16 mL/min/kg | 516 mL/min/kg | 0.607 | 43.1 µg/mL (≈ 171 µM) |  |  |
| Cn1ccc(NC(=O)[C@H]2CCCCN2C(=O)OC(C)(C)C)n1 | ≤ 4.74 mL/min/kg | 154 mL/min/kg | 2.54 | 42.4 µg/mL (≈ 137 µM) |  |  |
| CN1CCc2nc(NC(=O)c3ccc(Cl)s3)sc2C1 | 20 mL/min/kg | 477 mL/min/kg | 0.586 | 48.8 µg/mL (≈ 155 µM) |  |  |
| N#CCCN(C(=O)c1sccc1C#N)C12CC3CC(CC(C3)C1)C2 | 320 mL/min/kg | 1600 mL/min/kg | 1.16 | 7.8 µg/mL (≈ 23 µM) |  |  |
| Cc1cc(C)n(-c2ccc(C(=O)NCc3cccnc3)cc2)n1 | ≤ 4.74 mL/min/kg | 94.4 mL/min/kg | 4.95 | 45.4 µg/mL (≈ 148 µM) |  |  |
| Cc1c(C(=O)Nc2cnccn2)cccc1-c1ccccn1 | ≤ 4.74 mL/min/kg | 496 mL/min/kg |  |  |  |  |
| CC(=O)NCC1CCN(C(=O)c2ccc(C)nc2)CC1 | ≤ 4.74 mL/min/kg | ≤ 10.7 mL/min/kg | 130 | 54 µg/mL (≈ 196 µM) |  |  |
| C[C@H]1Oc2cc(cnc2N)-c2c(nn(C)c2C#N)CN(C)C(=O)c2ccc(F)cc21 | ≤ 4.74 mL/min/kg | 34.3 mL/min/kg | 14.5 |  |  |  |
| COc1c(C)cnc(Cn2cc(C#CCC(C)(C)O)c3c(Cl)nc(N)nc32)c1C | 58.2 mL/min/kg | 145 mL/min/kg |  |  |  |  |
| Cc1cc(-c2cn(C)nc2[C@H]2CC[C@H](CNC(=O)C(C)C)CC2)on1 | ≤ 4.74 mL/min/kg | 268 mL/min/kg | 30.3 |  |  |  |
| CN(C)CCOc1cc(-c2cn[nH]c2)ccc1NC(=O)C1COc2ccccc2O1 (stereo not drawn) | 19.9 mL/min/kg | 691 mL/min/kg | 32.1 |  |  |  |
| COc1cc2c(cc1OC)CN(CCc1ccc(NC(=O)c3cccc4c(O)c5cccc(OC)c5nc34)cc1)CC2 |  |  |  |  | 0.00062 | 0.00051 |
| COc1ccc([C@H]2CN(C(C)=O)[C@@H]3CCCN(Cc4cccc(F)c4)[C@H]23)cc1 | 176 mL/min/kg | 1970 mL/min/kg | 1.35 | 45 µg/mL (≈ 118 µM) | 0.0394 | 0.0393 |
| Cn1cc(Br)cc1C(=O)N1CCc2nn[nH]c2C1 | ≤ 4.74 mL/min/kg | 43.8 mL/min/kg |  |  |  |  |
| Cc1nc(NCc2ccc(F)cc2)n(C)n1 | ≤ 4.74 mL/min/kg | ≤ 10.7 mL/min/kg | 0.975 |  |  |  |
